Test results from ChEMBL document CHEMBL3046210, “6-Imino-2-thioxo-pyrimidinones as a new class of dipeptidyl peptidase IV inhibitors” (Med Chem Res, 2011).

Key:
[1] = tested on: THP-1; assay: Cytotoxicity against Homo sapiens (human) THP1 cells up to 0.1 mM after 24 hr by MTS assay; format: cell-based; conditions: thp-1, 24 h
[2] = tested on: HepG2; assay: Cytotoxicity against Homo sapiens (human) HepG2 cells up to 0.1 mM after 24 hr by MTS assay; format: cell-based; conditions: hepg2, 24 h

With `COc1cc(CC2(C(C)C)C(=N)NC(=S)NC2=O)cc(OC)c1OC` (stereo unspecified) as the compound, how does the Activity [1] read?
The Activity was “Non-toxic”.

And the Activity [2]?
The Activity was “Non-toxic”.

For `COc1cc(CC2(Cc3cc(OC)c(OC)c(OC)c3)C(=N)NC(=S)NC2=O)cc(OC)c1OC`, which Activity [1] is on record?
The Activity was “Non-toxic”.

And the Activity [2]?
Its Activity is “Non-toxic”.

`COc1cc(CC2C(=N)NC(=S)NC2=O)cc(OC)c1OC` (stereo unspecified) was tested. Which Activity [1] did it give?
Its Activity is “Non-toxic”.

And the Activity [2]?
Its Activity is “Non-toxic”.

Which Activity [1] does the source give for `CCCC1(Cc2cc(OC)c(OC)c(OC)c2)C(=N)NC(=S)NC1=O` (stereo unspecified) here?
The Activity was “Non-toxic”.

What about the Activity [2] of the same compound?
Its Activity is “Non-toxic”.

What does the source list for `COc1cc(CC2(C)C(=N)NC(=S)NC2=O)cc(OC)c1OC` (stereo unspecified)?
Activity [1]: Non-toxic; Activity [2]: Non-toxic

Which results are given for `C=CCC1(Cc2cc(OC)c(OC)c(OC)c2)C(=N)NC(=S)NC1=O` (stereo unspecified)?
Activity [1]: Non-toxic; Activity [2]: Non-toxic

What does the source list for `CCC1(Cc2cc(OC)c(OC)c(OC)c2)C(=N)NC(=S)NC1=O` (stereo unspecified)?
Activity [1]: Non-toxic; Activity [2]: Non-toxic

Which results are given for `CCCCC1(Cc2cc(OC)c(OC)c(OC)c2)C(=N)NC(=S)NC1=O` (stereo unspecified)?
Activity [1]: Non-toxic; Activity [2]: Non-toxic
